Measurements: EP1246919B1, “PROGENITOR CELL PR[…] AND RELATED METHODS AND PRODUCTS” (ImClone Systems Incorporated, priority 1999, dated 2001)

Experiments:
[1] = target: FLT3 receptor on FLT3-transfected 3T3 cells (murine FLT3 extracellular portion/human Fms chimera or full length human receptor, not told apart at that place); test: cell-based or functional assay
BALB/c mice [2] = test: Murine 5-FU chemoprotection model; type: in vivo; conditions: 5-FU 150 mg/kg intraperitoneally
Experimental: A dose regimen was established to determine whether FRIL protects mice from death resulting from hematopoietic toxicity of […]. […] This finding was consistent with the understanding that stem cells reside in the bone marrow in predominantly a quiescent state. Bone marrow cellularity in these mice was restored after 2 weeks by the recruitment of the dormant progenitors and responsive stem cells that escaped toxicity of 5-FU. Administration of a second dose of 5-FU (also at 150 mg/kg) 3-7 days after the initial dose killed those stem cells and progenitors recruited into S-phase in response to the first treatment of 5-FU (Lerner and Harrison, supra).
In this study described below, the pretreatment dose regimen for Dl-FRIL described above (5 mg/kg x 4 days) was selected based on the requirement of treating animals with cytokines for several days prior to starting chemotherapy and because Dl-FRIL-treated mice easily tolerated doses (5 mg/kg) that were 10- to 100-fold greater than that used for cytokines. […]

BALB/c mice [3] = conditions: single dose of 5-FU (150 mg/kg); Lerner and Harrison; cited from earlier work
Dl-FRIL = target: T1, Dl-FRIL (Lablab purpureus, UniProt Q9ZTA9); conditions: Mo et al., Glycobiology 9:173-179, 1999; cited from earlier work
T1 sequence (Q9ZTA9 9-124 limits assumed): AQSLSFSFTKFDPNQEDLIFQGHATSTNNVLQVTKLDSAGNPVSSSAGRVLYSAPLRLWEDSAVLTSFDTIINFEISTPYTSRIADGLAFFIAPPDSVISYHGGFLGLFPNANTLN
T1 sequence (Q9ZTA9 125-272 limits assumed): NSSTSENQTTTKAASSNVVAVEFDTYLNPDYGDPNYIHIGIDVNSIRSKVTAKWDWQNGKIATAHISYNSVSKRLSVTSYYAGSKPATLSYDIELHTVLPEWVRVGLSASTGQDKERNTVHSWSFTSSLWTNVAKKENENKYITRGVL

Pv-FRIL, mannose-binding lectin isolated from red kidney bean (Phaseolus vulgaris) extract, or purified from PHA-LCM
Specific Activity (u/mg) in the Flt3 3T3 assay, Superdex 75 fraction (Pv-FRIL purified to near homogeneity from PHA-LCM) [1]: 244000 u/mg

O=c1[nH]cc(F)c(=O)[nH]1 [5-FU, 5-fluorouracil]
deaths after a single dose (BALB/c mice [2]): No mice died
reduction of bone marrow cellularity (BALB/c mice [3]): > 90%

OC[C@H]1O[C@H](O[C@H]2O[C@H](CO)[C@@H](O)[C@H](O)[C@H]2O)[C@H](O)[C@@H](O)[C@@H]1O [α,α-trehalose]
greater potency than mannose (Dl-FRIL): 3.6 fold
